Values joined by “and” are separate entries in the source; they are usually repeats but may differ in a detail not shown here. Identical values can stand only once. Marks after values point to notes of the source that are not given here.
What was measured:
B. pahangi Hsp90 = target: T1, B. pahangi Hsp90 (Brugia pahangi, UniProt O61998); assay: Competition FP assay (displacement of Cy3B-GA), B. pahangi lysate; assay type: binding; conditions: FP assay; best fit (95% confidence intervals); read-out: B. pahangi IC50
T1 construct: Adult worms of B. pahangi were obtained from infected jirds; from tissue; host or cells: whole adult B. pahangi worms, ground and lysed in HFB buffer
Method: Adult worms of B. pahangi were obtained from infected jirds after 3–4 months, exactly as described previously and were frozen in liquid nitrogen, ground in a pestle and mortar to a fine powder and re-suspended in an appropriate volume of HFB assay buffer (20 mM HEPES, pH 7.3, 50 mM KCl, 5 mM MgCl2, 20 mM Na2MoO4, 1% NP40). Protein concentrations were estimated using the BioRad protein assay. At this point lysates were freeze-dried for shipping to the USA.
(§1) The FP assay was set up essentially as described previously, [25]. […] The equilibrium binding of Cy3B-GA and recombinant human Hsp90α (Enzo Life Sciences, Farmingdale, NY USA) or parasite lysate was determined by creating a two-fold dilution series of protein/extract for an eleven-point curve with the first column containing no protein. […] All FP values are expressed in millipolarization (mP) units with the mP value of free Cy3B-GA probe set to 50. Equilibrium binding constants were determined by nonlinear regression using a one-site binding model (GraphPad Prism software).
(§2) The relative binding affinities of inhibitors to human or parasite-derived Hsp90 was determined using competitive FP binding assays. […] For parasite-derived Hsp90, an amount of parasite lysate resulting in 50% of maximal Cy3B-GA binding was used. […] Stock solutions of each compound were prepared in DMSO at a concentration of 10 mM and 3-fold serial dilutions prepared in DMSO for eleven point curves. […] The final concentration of Cy3B-GA was 6 nM and the final DMSO concentration in all wells was 0.5%. Free Cy3B-GA (mP set to 50) and buffer only (background) wells were included as controls on each plate. Plates were incubated at 8°C with gentle shaking for 20 h.

B. malayi Hsp90 = B. malayi Hsp90 (Brugia malayi, UniProt A0A0H5S7Y7); assay: Competition FP assay (displacement of Cy3B-GA), B. malayi lysate; assay type: binding; conditions: best fit (95% confidence intervals), read-out: B. malayi IC50
Method: as §1, §2

Brugia Hsp90 = assay: Competition FP assay, Brugia Hsp90 (species not separated); assay type: binding; conditions: read-out: IC50 for binding to Brugia Hsp90
Method: as §1, §2

[1] = tested on: B. pahangi Mf (microfilariae); assay: Mf viability in vitro; assay type: cell-based, Brugia pahangi; conditions: Mf
Method: As adult Brugia worms are limited in numbers, initial experiments assessed the effect of each drug on Mf viability. Mf were purified from infected animals essentially as described previously. In brief, following lavage of the peritoneal cavity of an infected animal with Hanks Balanced Salt Solution (HBSS) pre-warmed to 37°C, Mf were collected by centrifugation and then purified from host cells by centrifugation through lymphoprep (Sigma). This procedure was repeated twice. Mf were collected from the pellet, washed twice in HBSS and once in worm culture medium (WCM) which comprised RPMI 1640, (Invitrogen Cat No: 52400), containing 5% heat inactivated fetal calf serum, 1% glucose, 100 units/ml penicillin and 100 µg/ml streptomycin (all Invitrogen). Mf were then dispensed into the wells of a 24-well plate to give approximately 200 Mf in 2.0 ml, using a single well for each drug concentration. All procedures were carried out using aseptic techniques. The five novel compounds, plus GA and medium alone controls, were tested three times against Mf over the full range of concentrations.

adult female B. pahangi [2] = assay: Adult female worm assay in vitro (Mf output and adult viability), continuous exposure; assay type: cell-based, Brugia pahangi
Method: For adult worm assays, adult female B. pahangi, 3–4 months old, were incubated individually in 2.0 ml of WCM overnight in 24-well plates and pre-screened for Mf production. […] For the drug experiments, six female worms of B. pahangi for each concentration of drug were cultured individually in 24-well plates in 2.0 ml of WCM containing drug, or carrier alone (DMSO) at a concentration equal to that in the highest concentration of drug. In some experiments, GA was used as a positive control. Initially, all five compounds were tested over selected concentrations starting at 2 µM to 100 nM (see Results for details). For Hsp90 inhibitors, Mf output by individual female worms is a sensitive indicator of adult worm viability and, in most experiments, was assessed at 72 h. In addition, adult worms were examined microscopically on a daily basis for 7–10 days to determine whether lower concentrations of drugs had any effects over a longer period of incubation. Results are expressed as mean Mf output ± SD over a 72 h period. Statistical significance between groups was calculated using the Mann Whitney test with P values<0.05 being considered significant.

male worms (B. pahangi) = assay: Adult male worm exposure in vitro; assay type: cell-based, Brugia pahangi; conditions: 100 nM, day 7 of exposure
Method: The remaining worms although alive, were extremely sluggish. […] Worms that were dying tended to burst and release their uterine contents and wells contained many embryonic stages in addition to Mf. […] By day 7 of exposure 100% of male worms exposed to 100 nM drug were dead.

L3 stage of B. pahangi = assay: L3 viability in vitro; assay type: cell-based, Brugia pahangi; conditions: 6 days exposure
Method: L3 stages were harvested from mosquitoes nine days post-infection. L3 were picked individually with a fine glass pipette, counted and washed three times in HBSS containing 1000 units/ml of penicillin and 1000 µg/ml streptomycin by sedimentation at room temperature. 20–30 L3 per well were plated out in duplicate in 24-well plates in 2.0 ml of WCM containing drug, or carrier alone (DMSO) and cultured at 37°C for up to 7 days. […] This experiment was repeated twice.

adult female B. pahangi [3] = assay: Short 24 h exposure of adult female worms, then medium alone; assay type: cell-based, Brugia pahangi; conditions: for mean Mf production: 24 h in drug and 24 h in medium alone; for lowest concentration with significantly fewer Mf: 250, 25, 10 nM tested
[4] = tested on: adult female B. pahangi and Mf; assay: In vivo testing: adult female worms transplanted into the peritoneal cavity of BALB/c mice; parameters: species or system BALB/c mouse; conditions: 50 mg/Kg i.p. at day 0, 3 and 7
Description: Adult worms were removed from the peritoneal cavity of infected jirds and rinsed in HBSS. 10 adult female worms were transplanted into the peritoneal cavity of each of ten male BALB/c mouse using standard methods, [28]. Adult worms were transferred into the peritoneal cavity of anaesthetized mice using a blunted glass hook. Not all mice received the full quota of 10 worms (see Table 1). […] This dose was selected on the basis of previous studies in a mouse xenograft model. […] The condition of any adult worms recovered was noted. Mf in the first 12 ml of peritoneal washings were pelleted by centrifugation and fixed in 2% formalin in water and stored at 4°C until counted. Mice were weighed at each time point to monitor any possible weight loss.

[5] = single dose of 50 mg/Kg, intra-peritoneal route; cited from earlier work
[6] = recovery 9 days after last dose

CCNC(=O)c1noc(-c2cc(C(C)C)c(O)cc2O)c1-c1ccc(CN2CCOCC2)cc1 [NVP-AUY922]
IC50 (B. pahangi Hsp90): 640 pM
IC50 (B. malayi Hsp90): 950 pM
IC50 (Brugia Hsp90): ~1000 pM
% death by day 7 ([1]; 0.976 nM): 75%
% death by day 7 ([1]; 1.95 nM): 100%
adult worm survival at lower concentrations (adult female B. pahangi [2]; 10 and 5.0 nM, motility affected): did not die
lowest concentration with significant inhibitory effect on Mf output (adult female B. pahangi [2]; 72 h exposure, titrated 500 nM to 1.0 nM): 10 nM
adult worms killed (adult female B. pahangi [2]; 6 days exposure, 25 nM): 50%
adult worms dead (adult female B. pahangi [2]; 6 days exposure, 25 nM, typical experiment): 3/6
adult worms dead (adult female B. pahangi [2]; 6 days exposure, 50 nM, typical experiment): 4/6
adult worms dead (adult female B. pahangi [2]; 6 days exposure, 100 nM and above): all adult worms were dead
lowest concentration with significant decrease in Mf output (adult female B. pahangi [2]; 6 days exposure, not significant at 1.0 nM): 5.0 nM and 5 nM
concentration with significant effect on Mf output (adult female B. pahangi [2]; initial screen 2.0 µM to 100 nM, adult female worms): ≤ 100 nM
male worms dead (male worms (B. pahangi)): 100%
effect on L3 (L3 stage of B. pahangi; 1 nM or below): no effect
L3 dead (L3 stage of B. pahangi; 5.0 nM, remainder moving very slowly): approximately 30%
L3 dead (L3 stage of B. pahangi; all concentrations down to and including 10 nM): 100%
mean Mf production (adult female B. pahangi [3]; 10 nM, not significant vs DMSO): 910±674 Mf
mean Mf production (adult female B. pahangi [3]; 25 nM): 100±60 Mf
mean Mf production (adult female B. pahangi [3]; 250 nM): 11±23 Mf
condition of adult worms (adult female B. pahangi [3]; 24 h exposure to 10 nM, day 9, vs DMSO controls): no obvious difference
condition of adult worms (adult female B. pahangi [3]; 24 h exposure to 25 nM, day 9): noticeably more sluggish than control worms
condition of adult worms (adult female B. pahangi [3]; 24 h exposure to 250 nM, 9 days in medium alone): barely moving, but they were still alive
lowest concentration with significantly fewer Mf (adult female B. pahangi [3]; 24 h in drug and 48 h in medium alone): 10 nM
lowest concentration with significantly fewer Mf (adult female B. pahangi [3]; after 24 h in drug): 25 nM
Mean no Mf per mouse ([4]; first 12 ml of peritoneal washings): 4730±5101
recovery of live worms ([4]; range over treated mice): 0–11%
Total number worms recovered ([4]; recovered/transplanted): 8/48 ^**
No. mice with live Mf [4, 6]: 2/5
No. mice with viable worms [4, 6]: 2/5
No. mice with worms [4, 6]: 5/5
No. viable worms recovered [4, 6]: 2
viable worms recovered (mean % ± SD) [4, 6]: 4.4±6.0%
time of maximum plasma level post-dosing [5]: 0.25 h

From PMC3923716 (PLoS Neglected Tropical Diseases, 2014)
